For assay [1], the target named is T1, CLK1 (Homo sapiens, UniProt P49759). Conditions: read-out: CLK1 IC50, 15 μM ATP, 30 min, 30 °C, triplicate.
In a further assay the target is T2, CDK5/p25 (Homo sapiens, UniProt Q00535).
T2 construct: made in house
Kind of assay: In vitro kinase assay CDK5/p25, [γ-33P]ATP, histone H1 substrate. Type of assay: biochemical. Here is the method:
(§1) It was also tested as positive control and its IC50 values were compared to those obtained for the compounds under study.
(§2) Buffer A: MgCl2 (10 mM), 1 mM ethylene glycol-bis(2-aminoethylether)-N,N,N’,N’- tetraacetic acid (EGTA), 1 mM dithiothreitol (DTT), 25 mM Tris-HCl pH 7.5, 50 μg heparin/mL. Buffer B: β-Glycerophosphate (60 mM), 30 mM p-nitrophenylphosphate, 25 mM 3-(N-morpholino) propanesulfonic acid (Mops) (pH 7.2), 5 mM EGTA, 15 mM MgCl2, 1 mM DTT, 0.1 mM sodium vanadate.
(§3) Blank values were substracted and activities expressed in % of the maximal activity, i.e., in the absence of inhibitors. Controls were performed with appropriate dilutions of dimethylsulfoxide (DMSO). IC50 values were calculated from dose-response curves established by Sigma-Plot graphs. The GSK-3, CK1, DYRK1A and CLK1 peptide substrates were obtained from Proteogenix (Oberhausbergen, France).
(§4) CDK5/p25. (Human, recombinant) was prepared as previously described. […] ATP (3000 Ci/mmol; 10 mCi/mL) in a final volume of 30 μL. After 30 min incubation at 30 °C, 25 μL aliquots of supernatant were spotted onto sheets of P81 phosphocellulose paper (Whatman) and 20 s later, the filters were washed eight times (for at least 5 min each time) in a solution of 10 mL phosphoric acid/L of water. The wet filters were counted in the presence of 1 mL ACS (Amersham, UK) scintillation fluid.

The target of a further assay is GSK-3α/β. As to the kind of experiment: In vitro kinase assay GSK-3α/β, GS-1 peptide substrate. Type of assay: biochemical, Porcine. On the procedure: as §1, §2, §3, §4
GSK-3α/β. (Porcine brain, native) was assayed, as described for CDK5/p25 but in buffer A and using a GSK-3 specific substrate (GS-1: […]pSEDEEE) (pS stands for phosphorylated serine).

The next assay addresses CK1δ/ε. Kind of assay: In vitro kinase assay CK1δ/ε, CK1-specific peptide substrate. Type of assay: biochemical, Porcine. The note with it: 15 μM ATP, 30 min, 30 °C, triplicate; <50% inhibition at 10 μM = IC50 >10 μM. Here is the method: as §1, §2, §3, §4
CK1δ/ε. (Porcine brain, native) was assayed as described for CDK5/p25 but using the CK1-specific peptide substrate […]pSAYSITA [37].

The target of assay [2] is T3, DYRK1A (Rattus norvegicus, UniProt Q63470). Kind of assay: In vitro kinase assay DYRK1A, Woodtide substrate. Type of assay: biochemical. On the procedure:
as §1, §2, §3, §4

For assay [3], the target named is T1, CLK1. Kind of assay: biochemical.
In assay [4] the target is T3, DYRK1A. Kind of assay: DYRK1A inhibition of earlier compounds I and II (Figure 2). The assay is classed as biochemical. Conditions: list of targeted kinases extended for earlier compounds.
A further assay has as its system CDK1. Further details: method as in PMID 17981370, PMID 16644220. Conditions: Figure 2; earlier work; cited from earlier work.
Where [5] appears, read: 15 μM ATP, 30 min, 30 °C, triplicate, <50% inhibition at 10 μM = IC50 >10 μM.
The mark [6] stands for this setting: 15 μM ATP, 30 min, 30 °C, triplicate, <50% inhibition at 10 μM = IC50 >10 μM, read-out: DYRK1A IC50.

Like-named read-outs stand apart in the source and are kept apart here.

The IC50 is the concentration that inhibits the measured activity by half.

T2 sequence (Q00535 whole entry): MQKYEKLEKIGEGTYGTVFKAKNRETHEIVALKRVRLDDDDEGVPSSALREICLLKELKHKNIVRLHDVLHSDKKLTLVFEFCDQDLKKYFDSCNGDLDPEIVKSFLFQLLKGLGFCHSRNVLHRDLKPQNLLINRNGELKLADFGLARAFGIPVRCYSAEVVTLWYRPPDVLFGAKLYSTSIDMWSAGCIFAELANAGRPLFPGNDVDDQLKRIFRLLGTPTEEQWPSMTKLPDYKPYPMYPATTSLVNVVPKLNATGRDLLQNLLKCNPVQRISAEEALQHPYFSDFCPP
T2 sequence (Q15078 99-307 partner limits assumed): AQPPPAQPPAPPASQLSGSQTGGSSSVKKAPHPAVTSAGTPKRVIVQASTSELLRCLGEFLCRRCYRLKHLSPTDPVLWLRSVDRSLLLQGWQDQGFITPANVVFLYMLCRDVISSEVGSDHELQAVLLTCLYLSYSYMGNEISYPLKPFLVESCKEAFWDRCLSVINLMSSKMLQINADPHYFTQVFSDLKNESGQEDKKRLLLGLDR
T1 sequence (P49759 whole entry): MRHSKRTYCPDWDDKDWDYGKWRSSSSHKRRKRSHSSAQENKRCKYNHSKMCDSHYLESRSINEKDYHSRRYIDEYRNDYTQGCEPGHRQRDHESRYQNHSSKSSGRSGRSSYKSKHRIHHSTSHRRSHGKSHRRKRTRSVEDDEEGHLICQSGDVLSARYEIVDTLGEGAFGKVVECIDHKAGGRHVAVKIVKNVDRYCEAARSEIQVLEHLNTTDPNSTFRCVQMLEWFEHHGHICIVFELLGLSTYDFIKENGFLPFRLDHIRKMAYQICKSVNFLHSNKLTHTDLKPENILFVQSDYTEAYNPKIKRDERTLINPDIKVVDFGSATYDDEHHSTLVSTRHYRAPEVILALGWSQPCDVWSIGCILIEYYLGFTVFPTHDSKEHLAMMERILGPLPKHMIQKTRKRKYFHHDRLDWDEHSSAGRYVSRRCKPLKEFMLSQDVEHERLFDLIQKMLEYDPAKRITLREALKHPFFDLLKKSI

Consider `COCCn1cnc2ccc3nc(C(=N)OC)sc3c2c1=O` [Compound 12b, Methyl 8-(2-methoxyethyl)-9-oxo-8,9-dihydrothiazolo[5,4-f]quinazoline-2-carbimidate], for which the IC50 on CLK1 [1] is 0.51 µM; against CDK5/p25 (setting [5]), over 10 µM; on GSK-3α/β it was 1.2 µM; against CK1δ/ε, over 10 µM; on DYRK1A [2] (setting [6]), 0.39 µM.

Take `COC(=N)c1nc2ccc3ncn(CCN(C)C)c(=O)c3c2s1` [Compound 12i, Methyl 8-[(3-dimethylamino)ethyl]-9-oxo-8,9-dihydrothiazolo[5,4-f]quinazoline-2-carbimidate]: the IC50 is 1.8 µM on CLK1 [1]; over 10 µM on CDK5/p25 (setting [5]); 1.8 µM against GSK-3α/β; over 10 µM at CK1δ/ε; 1 µM on DYRK1A [2] (setting [6]).

In the case of `CC(C)n1cnc2ccc3nc(C(=N)OCc4ccccc4)sc3c2c1=O` [Compound 13d, Benzyl 8-isopropyl-9-oxo-8,9-dihydro[1, 3]thiazolo[5,4-f]quinazoline-2-carbimidate], the IC50 at CLK1 [1] was 0.27 µM; on CDK5/p25 (setting [5]), over 10 µM; against GSK-3α/β, 0.057 µM; at CK1δ/ε, over 10 µM.

Regarding `N=C(OCc1ccccc1)c1nc2ccc3ncn(C4CCCCC4)c(=O)c3c2s1` [Compound 13g, Benzyl 8-cyclohexyl-9-oxo-8,9-dihydrothiazolo[5,4-f]quinazoline-2-carbimidate], the IC50 against CDK5/p25 is over 10 µM; on GSK-3α/β, 0.083 µM; at CK1δ/ε, over 10 µM; against CLK1 [3], 1.3 µM; against DYRK1A [2] it was 0.28 µM.

As to `CN(C)n1cnc2ccc3nc(C(=N)OCc4ccccc4)sc3c2c1=O` [Compound 13h, Benzyl 8-dimethylamino-9-oxo-8,9-dihydrothiazolo[5,4-f]quinazoline-2-carbimidate], the IC50 is over 10 µM against CDK5/p25; 0.15 µM on GSK-3α/β; over 10 µM at CK1δ/ε; 1.4 µM on CLK1 [3]; 0.21 µM against DYRK1A [2].

For `CCOC(=N)c1nc2ccc3ncn(C4CC4)c(=O)c3c2s1` [Compound 14a, Ethyl 8-cyclopropyl-9-oxo-8,9-dihydrothiazolo[5,4-f]quinazoline-2-carbimidate], the IC50 on CDK5/p25 is over 10 µM; against GSK-3α/β, 0.2 µM; on CK1δ/ε, over 10 µM; at CLK1 [3], 0.1 µM; at DYRK1A [2], 0.21 µM.

On to `CCOC(=N)c1nc2ccc3ncn(CCOC)c(=O)c3c2s1` [Compound 14b, Ethyl 8-(2-methoxyethyl)-9-oxo-8,9-dihydrothiazolo[5,4-f]quinazoline-2-carboximidoate], for which the half-inhibitory concentration (IC50) was over 10 µM on CDK5/p25; 1.2 µM against GSK-3α/β; over 10 µM against CK1δ/ε; 1.9 µM against CLK1 [3]; 0.82 µM against DYRK1A [2].

On to `CCOC(=N)c1nc2ccc3ncn(CCCOC)c(=O)c3c2s1` [Compound 14c, Ethyl 8-(3-methoxypropyl)-9-oxo-8,9-dihydrothiazolo[5,4-f]quinazoline-2-carboximidoate], for which the IC50 against CDK5/p25 was over 10 µM; at GSK-3α/β, 0.17 µM; against CK1δ/ε, over 10 µM; at CLK1 [3], 0.49 µM; at DYRK1A [2] it was 0.37 µM.

Regarding `CCOC(=N)c1nc2ccc3ncn(C4CCCC4)c(=O)c3c2s1` [Compound 14e, Ethyl 8-cyclopentyl-9-oxo-8,9-dihydrothiazolo[5,4-f]quinazoline-2-carbimidate], the IC50 on CDK5/p25 was over 10 µM; against GSK-3α/β it was 0.029 µM; on CK1δ/ε, over 10 µM; against CLK1 [3], 0.78 µM; against DYRK1A [2], 0.23 µM.

`CC(C)OC(=N)c1nc2ccc3ncn(C4CC4)c(=O)c3c2s1` [Compound 15a, Isopropyl 8-cyclopropyl-9-oxo-8,9-dihydrothiazolo[5,4-f]quinazoline-2-carbimidate]: the IC50 against CDK5/p25 was over 10 µM; at GSK-3α/β it was 0.42 µM; against CK1δ/ε, over 10 µM; against CLK1 [3], 0.043 µM; against DYRK1A [2], 0.42 µM.

Consider `COCCn1cnc2ccc3nc(C(=N)OC(C)C)sc3c2c1=O` [Compound 15b, Isopropyl 8-(2-methoxyethyl)-9-oxo-8,9-dihydro[1, 3]thiazolo[5,4-f]quinazoline-2-carboximidate], for which the IC50 on CLK1 [1] is 2.1 µM; at CDK5/p25 (setting [5]), over 10 µM; at GSK-3α/β it was 2.5 µM; against CK1δ/ε, over 10 µM; at DYRK1A [2] (setting [6]) it was 3.9 µM.

For the compound `COCCCn1cnc2ccc3nc(C(=N)OC(C)C)sc3c2c1=O` [Compound 15c, Isopropyl 8-(3-methoxypropyl)-9-oxo-8,9-dihydro[1, 3]thiazolo[5,4-f]quinazoline-2-carboximidate], the IC50 at CLK1 [1] is 1.2 µM; at CDK5/p25 (setting [5]), over 10 µM; at GSK-3α/β, 0.27 µM; against CK1δ/ε, over 10 µM; at DYRK1A [2] (setting [6]), 0.95 µM.

On to `CCn1cnc2ccc3nc(C(=N)OCc4ccccc4)sc3c2c1=O` [II], for which, at DYRK1A [4], the “DYRK1A IC50” value was “micromolar” and the half-inhibitory concentration (IC50) is 1.5 µM. In addition, in the assay on CDK1, the “CDK1 IC50” value is listed as “micromolar range” and the IC50 was 1.3 µM.

(Values after paper PMC6273584, “Synthesis of Thiazolo[5,4-f]quinazolin-9(8H)-ones as Multi-Target Directed Ligands of Ser/Thr Kinases” (Molecules, 2016).)
